The values below come from PubChem BioAssay (NCI).

SMILES strings stand for the structures.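 The compound was tested at five concentrations on cells cultured in 96-well plates, with a 48-hour exposure period. TGI denotes the concentration required for complete inhibition of growth.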 A value given as a limit tells only on which side of the number the result lay.

The test system of the assay is P388/ADR leukemia. Put plainly: NCI tumour cell line growth inhibition, 48 h.

Molecule `COc1cc(C2c3cc4c(cc3[C@@H](Nc3cccc(O)c3)C3COC(=O)[C@H]23)OCO4)cc(OC)c1O` (some centres not stated) gave a TGI of 1.65 µM.

Take `Nc1ccc2c(c1)CN1C(=O)c3ccccc3C1=N2`: the TGI is over 125 µM.
